# Measured values from patent US11499978B2, “Method for measuring quality of therapeutic cell through real-time glutathione measurement” (CELL2IN, INC., priority 2017, dated 2022).
# Legend:
# hUC-MSCs [1] = test: SDF1α- and PDGF-AA-induced migration capacity of hUC-MSCs; format: cell-based, human; settings: 125 or 250 μg/mL AA2G for three days, n=3
# Procedure: The inventors observed an effect of the material on stem cells by treating each stem cells with a material for enhancing a glutathione evaluation parameter. When hUC-MSCs were subcultured in a L-AA2G-containing medium, CFU-F, migration capacity, and an anti-inflammatory effect were observed. A CFU-F assay (n=3) was performed by treating hUC-MSCs with 125 or 250 μg/mL of AA2G for three days. As shown in FIGS. 16A and 16B, it was confirmed that, when AA2G was treated, CFU-F increased. In addition, as hUC-MSCs were treated with 125 or 250 μg/mL of AA2G for three days, PDGF-AA-induced migration capacity (n=3) was analyzed. As shown in FIGS. 17A and 17B, it was confirmed that the migration capacity was increased by AA2G treatment. In addition, the reduction in T cell proliferation, the reduction in T cell differentiation, and the promotion of Treg cell differentiation were observed by treating hUC-MSCs with 125 or 250 μg/mL of AA2G for three days. […] Meanwhile, hUC-MSCs were cultured with a glutathione precursor such as γ-glutamyl cysteine (GGC, 0.1, 0.25, and 0.5 mM). […] In addition, SDF1α and PDGF-AA-induced migration capacities (n=3) were analyzed for hUC-MSCs without treatment with GGC, and SDF1α and PDGF-AA-induced migration abilities (n=3) were analyzed by treating hUC-MSCs with the increasing concentrations of GGC. […]
# hUC-MSCs [2] = test: CFU-F assay of hUC-MSCs; format: cell-based, human; settings: 125 or 250 μg/mL AA2G for three days, n=3
# Procedure: The inventors observed an effect of the material on stem cells by treating each stem cells with a material for enhancing a glutathione evaluation parameter. When hUC-MSCs were subcultured in a L-AA2G-containing medium, CFU-F, migration capacity, and an anti-inflammatory effect were observed. A CFU-F assay (n=3) was performed by treating hUC-MSCs with 125 or 250 μg/mL of AA2G for three days. As shown in FIGS. 16A and 16B, it was confirmed that, when AA2G was treated, CFU-F increased. In addition, as hUC-MSCs were treated with 125 or 250 μg/mL of AA2G for three days, PDGF-AA-induced migration capacity (n=3) was analyzed. As shown in FIGS. 17A and 17B, it was confirmed that the migration capacity was increased by AA2G treatment. In addition, the reduction in T cell proliferation, the reduction in T cell differentiation, and the promotion of Treg cell differentiation were observed by treating hUC-MSCs with 125 or 250 μg/mL of AA2G for three days. […] Meanwhile, hUC-MSCs were cultured with a glutathione precursor such as γ-glutamyl cysteine (GGC, 0.1, 0.25, and 0.5 mM). A CFU-F assay (n=3) was performed by treating hUC-MSCs with each concentration of GGC for 2 hours. […] In addition, SDF1α and PDGF-AA-induced migration capacities (n=3) were analyzed for hUC-MSCs without treatment with GGC, and SDF1α and PDGF-AA-induced migration abilities (n=3) were analyzed by treating hUC-MSCs with the increasing concentrations of GGC. STI571 was used as a PDGFR kinase inhibitor. As shown in FIGS. 20A to 20C, it was confirmed that, according to an increase in GGC treatment concentration, SDF1α- and PDGF-AA-induced migration capacities were enhanced. A CFU-F assay (n=3) was performed by treating hUC-MSCs with 0.2, 1, 2, and 4 μM ferrostatin-1 and 0.1, 0.5, 1, and 2 μM liproxstatin-1 for 24 hours.
structure (smiles),measurement,setting,value
"O=C1O[C@H]([C@@H](O)CO)C(O)=C1O[C@H]1O[C@H](CO)[C@@H](O)[C@H](O)[C@H]1O [AA2G, ascorbic acid 2-glucoside]",PDGF-AA-induced migration capacity,hUC-MSCs [1],increased
same,CFU-F,hUC-MSCs [2],increased
